Here are results for 89 compounds from a melting point compilation (Tetko et al.; mined from patent text by program, amines drawn as free bases though some values may be those of a salt).

The term melting point denotes the temperature, or range, at which the solid turns liquid.

As for `Cc1ccc(C2=Cc3cc(C(=O)Nc4ccc(CN(C)C5CCOCC5)cc4)ccc3OC2)cc1`, the melting point fell in the range of 230 to 235 °C.

For the compound `Cc1noc(NC(=O)CCl)c1C`, the melting point lay in the range of 97 to 100 °C.

As to `CCOC(=O)c1cn(-c2ncc(Cl)cc2Cl)cn1`, the melting point fell in the range of 114 to 115 °C.

Take `O=C/C=C/c1cc2ccccc2[nH]1`: the melting point was 203 to 204 °C.

For the compound `O=C(O)c1cccc(Oc2ccc(C(F)(F)F)cc2Cl)c1`, the melting point was 116 to 119 °C.

For the compound `CCCCCN(CCC12CC3CC(CC(C3)C1)C2)C(=O)NCCC(C)c1ccncc1` (centres undefined), the melting point lay in the range of 93 to 98 °C.

As for `CCCCCCCCCCC[C@H](CC(=O)N[C@@H](CO)C(=O)OCc1ccccc1)OC(=O)CCCCCC`, the melting point lay within 46 to 48 °C.

On to `CC(=O)NC[C@H]1CN(c2ccc(N3CCC(=CC4(C#N)CC4)CC3)c(F)c2)C(=O)O1`, for which the melting point fell in the range of 175 to 179 °C.

On to `CCc1nn(CCO)c(CC)c1Oc1cc(C#N)cc(-n2cncn2)c1`, for which the melting point is 122 to 124 °C.

Compound `O=C(O)C(=O)c1cn2c3c(cccc13)CCC2` displayed a melting point of 152 to 155 °C.

The compound `CCOP(=O)(OCC)C(O)c1ccccc1` (centres undefined) showed a melting point of 83 to 83.5 °C.

On to `O=C(c1ccccc1)N1CCCSC1=C[N+](=O)[O-]`, for which the melting point is 90 to 92 °C.

Regarding `Cc1c(Cc2cccc(C(F)(F)F)c2)sc2c(-c3cccc(C(N)=O)c3)cccc12`, the melting point was 190 to 191 °C.

Compound `CNC(=O)c1cc(F)ccc1CNC(=O)c1nc2n(c(=O)c1OCc1ccccc1)CCOC2` displayed a melting point of 189 to 190 °C.

`COC(=O)c1cc(C(=O)c2c(C)c(NC(=O)c3cccc(OCCOS(C)(=O)=O)c3)c3ccccn23)ccc1N` showed a melting point of 171 °C.

As to `Cc1sc(-c2ccccc2)nc1COc1ccc(CCC[C@@H]2OC(=O)NC2=O)cc1`, the melting point lay within 113 to 114 °C.

As to `Cn1c(=O)c(Oc2ccccc2F)cc2cnc(S(C)(=O)=O)nc21`, the melting point lay in the range of 158 to 162 °C.

In turn, `Oc1cc2c(c(Cl)c1Cl)C(O)C(C1CCCC1)C2` (centres undefined) gave a melting point of 158 to 160 °C.

As to `COC(=O)c1ccccc1NC(=O)CCl`, the melting point is 97 to 99 °C.

In turn, `CCN1c2ncccc2C(=O)Nc2c(C)cc(N3CCC[C@H]3CO)nc21` gave a melting point of 238 to 240 °C.

Regarding `CON(C)Cc1nc2c(N)nc(C)c(C)c2n1CC(C)C`, the melting point fell in the range of 132 to 134 °C.

`COC(=O)c1sc(C)c(C)c1OC` showed a melting point of 37 to 39 °C.

`CC1(C)CC(N2CCCCCC2=O)CC(C)(C)N1O`: the melting point fell in the range of 212 to 215 °C.

Compound `C1=c2ccccc2=c2c1c1cnccc1c1c2=Cc2ccccc2-1` returned a melting point of 225 to 227 °C.

For the compound `Oc1ccc(Nc2ccn(Cc3ccccc3)n2)cc1`, the melting point was 114 to 116 °C.

`CC(C)NC(C)CCc1nc(Cn2cnc3c2c(=O)n(C)c(=O)n3C)no1` (centres undefined) gave a melting point of 55 to 61 °C.

In turn, `O=C(CCCCCBr)c1ccccc1` came in with a melting point of 35 to 36 °C.

In the case of `COc1cc(O)ccc1C1=NC2=CCC(=O)NC2=N1`, the melting point is over 270 °C.

Compound `C#CCN(Cc1cc2c(=O)n(C)c(CO)nc2cc1Cl)c1ccc(C(=O)OC(C)(C)C)cc1` came in with a melting point of 109 to 111 °C.

As to `O=C(Nc1cccnc1)c1nnc2ccccc2c1O`, the melting point lay within 326 to 328 °C.

In turn, `CC(=O)CCN1C[C@H]2Cc3ccccc3[C@H](c3ccccc3)[C@H]2C1` (racemic) gave a melting point of 121 to 124 °C.

Take `OC(CN1CCCC1)c1cc(C(F)(F)F)nc2c(C(F)(F)F)cccc12` (centres undefined): the melting point lay within 92 to 94 °C.

For `COCC(=O)Nc1nc(NC(=O)COC)c2[nH]cnc2n1`, the melting point lay within 219 to 220 °C.

Regarding `COc1ccc(C=CC(=O)OCCC(C)CCc2ccccc2)c(O)c1` (centres undefined), the melting point fell in the range of 70 to 73 °C.

In the case of `Cc1cn2c(nc1=O)CCCCC2`, the melting point was 202 °C.

With `O=C(Nc1cccc(Nc2ccc3c(c2)NC(=O)C3=Cc2ccc[nH]2)c1)Nc1cccc(C(F)(F)F)c1`, the melting point lay within 253 to 256 °C.

In the case of `CCOC(=O)N1CCN(c2c(-c3ccccc3)sc3ccccc23)CC1`, the melting point was in the range of 115 to 116 °C.

`COC(=O)c1ccc(OCCNC(=O)C2Cc3ccccc3N2S(=O)(=O)c2ccc(-c3ccc(F)cc3OC)cc2)cc1F` (centres undefined) showed a melting point of 73 to 80 °C.

`COc1ccc(C(=O)N2CCN(Cc3ccccc3)c3ccccc32)cc1OC` returned a melting point of 111 to 112 °C.

`Oc1ccc(-c2ncc3ncc(Nc4ccncc4)cc3n2)cc1` came in with a melting point of over 268 °C.

Compound `Fc1ccc(C(c2ccc(F)cc2)N2CCN(CCCSc3ncnc4nc[nH]c34)CC2)cc1` yielded a melting point of 90 to 93 °C.

`CN(C)Cc1ccc2c(c1)nnn2Cc1c(Cl)c(Cl)cc2[nH]c(=O)c(=O)[nH]c12` displayed a melting point of 282 °C.

The compound `Cc1cccc(Nc2cc(Cl)nc(S(C)(=O)=O)n2)c1C` came in with a melting point of 140 to 142 °C.

For `CN1CCC2(CC1)CN(c1ccccc1)c1ccccc12`, the melting point fell in the range of 90 to 92 °C.

For the compound `COc1ccc(N2CCN(c3ccc(-n4cnnc4SC)cc3)CC2)cc1`, the melting point was 180 °C.

Take `O=C1C(O)=C(C2CCCCC2)C(=O)c2ccccc21`: the melting point lay within 128 to 130 °C.

`O=C(Nc1ccc(N2CC3CC3C2)nc1)c1cc2cc(F)ccc2n1Cc1cccc(F)c1` (centres undefined) came in with a melting point of 193 to 195 °C.

Take `COC(=O)c1cc2c(s1)[C@@H](N1CCCCC1=O)[C@H](O)C(C)(C)O2` (relative stereo): the melting point lay within 104 to 106 °C.

For the compound `CC(C)(Cc1cccc(Oc2cccc(CC(C)(C)C(=O)O)c2)c1)C(=O)O`, the melting point lay in the range of 84 to 85 °C.

Take `c1ccc(N(c2ccc3c(c2)Oc2ccc(N(c4ccccc4)c4cccc5ccccc45)cc2O3)c2cccc3ccccc23)cc1`: the melting point was found to be 315 °C.

Compound `O=C1CNC(=O)N1c1ccncc1` registered a melting point of 232 to 234 °C.

As to `O=C1CC(c2ccccc2)c2ccccc2CN1` (centres undefined), the melting point lay within 180 to 181 °C.

Compound `CCCOc1ccccc1-c1nc2nc(N(CCC)CCC)ncc2c(=O)[nH]1` came in with a melting point of 123 to 124 °C.

Compound `O=C(N[C@H](Cc1ccc(C(F)(F)F)cc1)[C@@H](O)c1ccc(F)cc1)c1ccc2ccccc2c1` (racemic) gave a melting point of 174 to 175 °C.

The compound `CCOC(=O)C1=C(C2CC2)Nc2n[nH]cc2C1c1ccccc1Br` (centres undefined) displayed a melting point of 168 to 170 °C.

In the case of `Cc1ccc(C(=O)c2ccccc2Cl)n1N`, the melting point was 84 to 85 °C.

`C=CCC1=C(C)C(O)CC1=O` (centres undefined) gave a melting point of 130 to 132 °C.

`CNC(=O)C1CC(=O)c2nc(C)n(C)c2C1` (centres undefined) had a melting point of 194 to 196 °C.

`CC(O)(CSc1ccc(F)cc1)C(=O)O` (centres undefined) gave a melting point of 73 to 75 °C.

`N#Cc1ccccc1Nc1cc2c(cc1Nc1ccccc1)C(=O)NC2=O` displayed a melting point of 115 to 117 °C.

In turn, `CCC(C)c1nn(-c2ccc(C(F)(F)F)cn2)cc1CCCOc1c(CC(=O)O)cccc1OC` (centres undefined) gave a melting point of 117 to 118 °C.

`CC(C)(C)Oc1ccc(C(=O)N[C@H]2CC[C@H](CCN3CCN(c4nccc5c4CCO5)CC3)CC2)cc1` registered a melting point of 200 °C.

`CCOC(=O)c1nnc(-c2cc3cccc(N(C)S(=O)(=O)c4cccs4)c3[nH]2)s1` yielded a melting point of 176 to 177 °C.

The compound `CCOC(=O)c1cccc2nc(S)n(Cc3ccc(-c4ccccc4C#N)cc3)c12` registered a melting point of 225 to 227 °C.

Turning to `O=C1CSCC(=O)NCCNCCN1`, the melting point is 206 to 208 °C.

`COc1ccc(C2=C(c3ccc(O)cc3)CCCc3cc(OCc4ccccc4)ccc32)cc1` returned a melting point of 173 to 175 °C.

For the compound `Cc1cnc(C(=O)c2[nH]c3cc(Cl)ccc3c2CC(=O)O)s1`, the melting point lay within 225 to 226 °C.

Regarding `O=C(O)c1ccccc1Nc1ccc(Cl)cc1[N+](=O)[O-]`, the melting point was 235 to 247 °C.

`CCCCn1nc2c(N)nc3ncccc3c2c1CC(C)C`: the melting point was 219 to 222 °C.

As to `CCCOc1nc2sc(Cl)cc2c(=NC(=O)OC)n1CCC`, the melting point was in the range of 65 to 67 °C.

Turning to `CC1CC(=O)C(C(=O)c2ccc(C(F)(F)F)cc2[N+](=O)[O-])C(=O)O1` (centres undefined), the melting point lay within 135 to 136 °C.

As to `COc1ccc2c(c1)c(C#N)cn2C`, the melting point fell in the range of 100 to 104 °C.

In the case of `CCCCN=C(O)c1c(Cl)c(Cl)c(Sc2ccccc2)c(Cl)c1C(=O)O`, the melting point is 159 to 163 °C.

In turn, `CCOC(=O)c1cnn(-c2ccccc2)c1OC` yielded a melting point of 67 °C.

The compound `Cc1c(C)c(N2CCN(Cc3ccccc3)CC2)c(C)c2c1OC(C)(C)C2c1ccc(F)nc1` (centres undefined) returned a melting point of 76 to 79 °C.

For the compound `CCOC(=O)c1ccc(CCC(=O)O)cc1`, the melting point lay in the range of 108 to 110 °C.

`O=C1CN(c2cccc(Cl)c2)C(=O)N1S(=O)(=O)c1ccc2ccccc2c1` displayed a melting point of 194 to 198 °C.

With `O=C(O)CC1(O)CC(CCCCCCc2ccc(Cl)cc2Cl)OC1=O` (centres undefined), the melting point fell in the range of 77 to 79 °C.

As for `O=C1NC(=O)C(=Cc2cccs2)N1`, the melting point was 253 to 255 °C.

For the compound `COc1ccc2nc(Oc3c(Cl)cc(N)cc3Cl)sc2c1`, the melting point lay within 158 to 160 °C.

Compound `COCC(=O)Nc1ccc(C2=NNC(=O)C3CC23)cc1` (centres undefined) had a melting point of 206 °C.

In turn, `NC(=O)CNC(=O)c1cccc(-c2ccc(Cl)c3cc(Cc4cc(F)cc(Cl)c4)sc23)c1` yielded a melting point of 204 to 205 °C.

`CC1=C(C(=O)O)C(c2ccc(F)c(Br)c2)C2=C(CCC2=O)N1` (centres undefined) gave a melting point of 211 to 214 °C.

In turn, `CN1CCN(C(=O)CN2C(=O)C(NC(=O)Nc3ccc(Cl)cc3)N=C(c3ccccc3)c3ccccc32)CC1` (centres undefined) showed a melting point of 278 to 280 °C.

Compound `Cc1c(C(N)=O)c(C(F)(F)F)nn1-c1c(Cl)cc(C(F)(F)F)cc1Cl` displayed a melting point of 165 to 170 °C.

Consider `Cc1nc(-c2ccc(C(F)(F)F)cc2)oc1COc1ccc(CC(=O)O)cc1Cl`, for which the melting point fell in the range of 189 to 191 °C.

Compound `CC(C)(C)OC(=O)Nc1ccc(-c2ccc(F)cc2)cc1NC(=O)CC(=O)c1cccc(C#N)c1` came in with a melting point of 177 to 179 °C.

For `CCCC(Cl)(Cl)C(NC(=O)c1ccc(Cl)cc1)NC(=C[N+](=O)[O-])Nc1cccnc1` (centres undefined), the melting point lay within 185 to 186 °C.

Compound `COc1ccc(C2=CCC(N3CCN(Cc4ccccc4)CC3)CC2)cc1` (centres undefined) returned a melting point of 126 to 128 °C.
